Measured values reported in PubChem BioAssay AID248 (DTP/NCI, 2004).
Several values for one entry are separate records, joined by “and”; a condition that tells them apart may be missing. Equal values may be shown once. Toxic doses and inconclusive results are not listed. Cut-off read from the data, not from the text of the source: active = T/C of 150% or more; inactive = T/C below 125%.

System: L1210 leukemia ip in BDF1 mice, survival T/C
Assay: NCI In Vivo Anticancer Drug Screen. Data for tumor model L1210 Leukemia (intraperitoneal) in B6D2F1 (BDF1) mice
Settings: endpoint: mean survival time, higher = longer survival
Procedure, shortened: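 Each compound was tested against a transplantable tumor grown in mice. The endpoint was survival, with treated animals benchmarked against vehicle controls as a simple ratio.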

[1] = dose: 25.0 mg/kg/injection, schedule: Q01DX009 (ip), vehicle: saline with Tween-80
[2] = dose: 50.0 mg/kg/injection, schedule: Q01DX009 (ip), vehicle: saline with Tween-80
[3] = dose: 100.0 mg/kg/injection, schedule: Q01DX009 (ip), vehicle: saline with Tween-80
[4] = dose: 75.0 mg/kg/injection, schedule: Q01DX001 (ip), vehicle: saline
[5] = dose: 100.0 mg/kg/injection, schedule: Q01DX001 (ip), vehicle: saline with Tween-80
[6] = dose: 100.0 mg/kg/injection, schedule: Q01DX009 (ip), vehicle: Klucel (hydroxypropylcellulose) (HPC)
[7] = dose: 200.0 mg/kg/injection, schedule: Q01DX009 (ip), vehicle: Klucel (hydroxypropylcellulose) (HPC)
[8] = dose: 50.0 mg/kg/injection, schedule: Q04DX003 (ip), vehicle: Klucel (hydroxypropylcellulose) (HPC)
[9] = dose: 100.0 mg/kg/injection, schedule: Q04DX003 (ip), vehicle: Klucel (hydroxypropylcellulose) (HPC)
[10] = dose: 200.0 mg/kg/injection, schedule: Q04DX003 (ip), vehicle: Klucel (hydroxypropylcellulose) (HPC)
[11] = dose: 100.0 mg/kg/injection, schedule: Q04DX002 (ip), vehicle: Klucel (hydroxypropylcellulose) (HPC)
[12] = dose: 200.0 mg/kg/injection, schedule: Q04DX002 (ip), vehicle: Klucel (hydroxypropylcellulose) (HPC)
[13] = dose: 400.0 mg/kg/injection, schedule: Q04DX002 (ip), vehicle: Klucel (hydroxypropylcellulose) (HPC)
[14] = dose: 400.0 mg/kg/injection, schedule: Q01DX009 (ip), vehicle: Klucel (hydroxypropylcellulose) (HPC)
[15] = dose: 400.0 mg/kg/injection, schedule: Q04DX003 (ip), vehicle: Klucel (hydroxypropylcellulose) (HPC)

Measured: T/C

CN(C)Cc1cc(C(C)(C)C)c(O)c(C(C)(C)C)c1
inactive: [1] 112 % of control | [2] 98 % of control | [3] 94 % of control | dose: 100.0 mg/kg/injection, schedule: Q04DX003 (ip), vehicle: saline with Tween-80 95 % of control

O=c1ccc2c(ccc3ncccc32)o1
inactive: dose: 50.0 mg/kg/injection, schedule: Q01DX009 (ip), vehicle: carboxymethylcellulose (CMC) 87 % of control | dose: 50.0 mg/kg/injection, schedule: Q04DX003 (ip), vehicle: carboxymethylcellulose (CMC) 117 % of control | dose: 100.0 mg/kg/injection, schedule: Q01DX009 (ip), vehicle: carboxymethylcellulose (CMC) 98 % of control | dose: 100.0 mg/kg/injection, schedule: Q04DX003 (ip), vehicle: carboxymethylcellulose (CMC) 111 % of control | dose: 200.0 mg/kg/injection, schedule: Q04DX003 (ip), vehicle: carboxymethylcellulose (CMC) 93 % of control

Cc1ccc(Oc2cccc3c2CC[N+](C)(C)C3)cc1
inactive: dose: 6.25 mg/kg/injection, schedule: Q04DX002 (ip), vehicle: Klucel (hydroxypropylcellulose) (HPC) 96 % of control | dose: 12.5 mg/kg/injection, schedule: Q01DX001 (ip), vehicle: Klucel (hydroxypropylcellulose) (HPC) 97 % of control | dose: 12.5 mg/kg/injection, schedule: Q04DX002 (ip), vehicle: Klucel (hydroxypropylcellulose) (HPC) 96 % of control | dose: 25.0 mg/kg/injection, schedule: Q04DX002 (ip), vehicle: Klucel (hydroxypropylcellulose) (HPC) 100 % of control | dose: 50.0 mg/kg/injection, schedule: Q01DX001 (ip), vehicle: Klucel (hydroxypropylcellulose) (HPC) 94 % of control

O=c1ccc2ccccc2o1
inactive: dose: 45.0 mg/kg/injection, schedule: Q01DX Z (ip), vehicle: carboxymethylcellulose (CMC) 114 % of control | dose: 65.0 mg/kg/injection, schedule: Q01DX Z (ip), vehicle: carboxymethylcellulose (CMC) 94 % of control | dose: 95.0 mg/kg/injection, schedule: Q01DX Z (ip), vehicle: carboxymethylcellulose (CMC) 102 % of control | dose: 100.0 mg/kg/injection, schedule: Q01DX001 (ip), vehicle: other 100 % of control | dose: 110.0 mg/kg/injection, schedule: Q01DX Z (ip), vehicle: carboxymethylcellulose (CMC) 102 % of control and 105 % of control | dose: 165.0 mg/kg/injection, schedule: Q01DX Z (ip), vehicle: carboxymethylcellulose (CMC) 97 % of control | dose: 200.0 mg/kg/injection, schedule: Q01DX001 (ip), vehicle: other 105 % of control

CCOC(=O)C(CC#N)C(=O)OCC
inactive: dose: 75.0 mg/kg/injection, schedule: Q01DX001 (ip), vehicle: carboxymethylcellulose (CMC) 104 % of control | dose: 150.0 mg/kg/injection, schedule: Q01DX001 (ip), vehicle: carboxymethylcellulose (CMC) 98 % of control | dose: 300.0 mg/kg/injection, schedule: Q01DX001 (ip), vehicle: carboxymethylcellulose (CMC) 96 % of control

C[N+](C)(C)C12CCCCC1S(=O)(=O)C2 (stereo not given)
inactive: [4] 108 % of control

O=C(Cl)COc1cc(Cl)c(Cl)cc1Cl
inactive: dose: 100.0 mg/kg/injection, schedule: Q04DX002 (ip), vehicle: gum acacia 106 % of control | dose: 200.0 mg/kg/injection, schedule: Q04DX002 (ip), vehicle: gum acacia 110 % of control

O=c1ccsc(=S)[nH]1
inactive: [5] 101 % of control | dose: 200.0 mg/kg/injection, schedule: Q01DX001 (ip), vehicle: saline with Tween-80 104 % of control | dose: 400.0 mg/kg/injection, schedule: Q01DX001 (ip), vehicle: saline with Tween-80 97 % of control

COc1ccc(NC(=O)Nc2ccc(F)c([N+](=O)[O-])c2)c(Cl)c1
inactive: [1] 95 % of control | [2] 100 % of control | [3] 96 % of control

O=C(Nc1c[nH]c(=O)[nH]c1=O)C(Cl)Cl
inactive: dose: 16.0 mg/kg/injection, schedule: Q01DX Z (ip), vehicle: methylcellulose (MC) 91 % of control | dose: 31.0 mg/kg/injection, schedule: Q01DX Z (ip), vehicle: methylcellulose (MC) 95 % of control | dose: 50.0 mg/kg/injection, schedule: Q01DX009 (ip), vehicle: Klucel (hydroxypropylcellulose) (HPC) 103 % of control | dose: 62.0 mg/kg/injection, schedule: Q01DX Z (ip), vehicle: methylcellulose (MC) 93 % of control | [6] 104 % of control | dose: 125.0 mg/kg/injection, schedule: Q01DX Z (ip), vehicle: methylcellulose (MC) 90 % of control | [7] 117 % of control

CN(C)N=Nc1ccc(C(=O)N/N=C/c2cccc([N+](=O)[O-])c2)cc1
inactive: [8] 92 % of control | [9] 106 % of control | [10] 92 % of control

CNC1C(O)C(OC2C(N)CC(N)C(OC3OC(CN)=CCC3N)C2O)OCC1(C)O (stereo not given)
inactive: dose: 63.5 mg/kg/injection, schedule: Q04DX002 (ip), vehicle: saline with Tween-80 90 % of control | dose: 125.0 mg/kg/injection, schedule: Q04DX002 (ip), vehicle: saline with Tween-80 97 % of control | dose: 250.0 mg/kg/injection, schedule: Q04DX002 (ip), vehicle: saline with Tween-80 87 % of control

O=C1C(Br)=CC(=NBr)C=C1Br
inactive: dose: 25.0 mg/kg/injection, schedule: Q04DX003 (ip), vehicle: Klucel (hydroxypropylcellulose) (HPC) 101 % of control | [8] 101 % of control | [9] 97 % of control

O=C(O)COc1cc(Cl)ccn1
inactive: [11] 100 % of control | [12] 93 % of control | [13] 110 % of control

Cn1cnc([N+](=O)[O-])c1S(=O)(=O)NCN1CCOCC1
inactive: dose: 25.0 mg/kg/injection, schedule: Q01DX009 (ip), vehicle: Klucel (hydroxypropylcellulose) (HPC) 117 % of control | [6] 113 % of control | [7] 113 % of control

Cc1cc(C)c(N(C)C(=O)CCC(=O)O)c(Br)c1
inactive: [6] 89 % of control | [9] 101 % of control | [7] 101 % of control | [10] 100 % of control | [14] 101 % of control | [15] 94 % of control

O=C(O)/C=C/c1cccc(Br)c1
inactive: dose: 50.0 mg/kg/injection, schedule: Q01DX001 (ip), vehicle: carboxymethylcellulose (CMC) 101 % of control | dose: 100.0 mg/kg/injection, schedule: Q01DX001 (ip), vehicle: carboxymethylcellulose (CMC) 97 % of control | dose: 200.0 mg/kg/injection, schedule: Q01DX001 (ip), vehicle: carboxymethylcellulose (CMC) 97 % of control | dose: 400.0 mg/kg/injection, schedule: Q01DX001 (ip), vehicle: carboxymethylcellulose (CMC) 101 % of control

COc1ccc(NC(=O)Nc2ccc(C)c(C)c2)cc1
inactive: [6] 92 % of control | [9] 97 % of control | [7] 91 % of control | [10] 103 % of control | [14] 91 % of control | [15] 95 % of control

CC(C)=CCNc1nc(=O)[nH]c2nc[nH]c12
inactive: [4] 92 % of control | dose: 150.0 mg/kg/injection, schedule: Q01DX001 (ip), vehicle: saline 88 % of control | dose: 300.0 mg/kg/injection, schedule: Q01DX001 (ip), vehicle: saline 88 % of control

O=C(Cc1c(F)c(F)c(F)c(F)c1F)Nc1ccc(-c2nc3ccccc3s2)cc1
inactive: dose: 100.0 mg/kg/injection, schedule: Q01DX001 (ip), vehicle: Klucel (hydroxypropylcellulose) (HPC) 87 % of control | [6] 115 % of control | [11] 104 % of control and 115 % of control | [9] 95 % of control | dose: 200.0 mg/kg/injection, schedule: Q01DX001 (ip), vehicle: Klucel (hydroxypropylcellulose) (HPC) 90 % of control | [7] 105 % of control | [12] 93 % of control and 95 % of control | [10] 97 % of control | [13] 95 % of control and 96 % of control | [15] 97 % of control

Cc1cccc(C2=N/C(=C\c3cccc4ccccc34)C(=O)O2)c1
inactive: [2] 102 % of control | [3] 91 % of control | dose: 200.0 mg/kg/injection, schedule: Q01DX009 (ip), vehicle: saline with Tween-80 91 % of control

C=C1CC(=O)N(c2ccc(Cl)cc2)C1=O
inactive: dose: 25.0 mg/kg/injection, schedule: Q01DX001 (ip), vehicle: saline with Tween-80 93 % of control | dose: 50.0 mg/kg/injection, schedule: Q01DX001 (ip), vehicle: saline with Tween-80 98 % of control | [5] 97 % of control
